Experiment: Particle size of temozolomide drug substance entering the composition
Assay type: physicochemical
From the text: Characteristically, the composition of temozolomide according to the invention further contains at least one agent controlling the solid state of temozolomide in suspension. Indeed and during the development of the compositions of the invention, the Applicants observed an erratic recrystallisation of temozolomide after reconstitution of some suspensions with water. […] The recrystallisation triggered dose inhomogeneity within the suspensions, with large crystals settling down the bottom of the bottle or container. Furthermore, large crystals tended to clog the syringe for oral administration. This recrystallisation phenomenon was also observed in compositions containing povidone, the excipient used in the hospital-compounded formulations developed by Trissel et al. and Ambados et al.

Cn1nnc2c(C(N)=O)ncn2c1=O [temozolomide, 3-methyl-4-oxoimidazo[5,1-d][1,2,3,5]tetrazine-8-carboxamide]
particle size d90: < 100 μm

— patent US11730732B2, “Oral suspension of temozolomide” (Orphelia Pharma, priority 2018, dated 2023)
